Results as given in the NIST ThermoML archive (doi:10.1021/acs.jced.7b00106).

Details: Hot wire method

FC(F)(F)/C=C/Cl [(E)-1-chloro-3,3,3-trifluoroprop-1-ene]
Details	thermal conductivity [W/m/K]
383.11 K, 7892 kPa, Liquid	0.06492
383.11 K, 8377 kPa, Liquid	0.06527
383.11 K, 20088 kPa, Liquid	0.07252
383.12 K, 7882 kPa, Liquid	0.06487
383.12 K, 8374 kPa, Liquid	0.06525
383.12 K, 20102 kPa, Liquid	0.07254
383.13 K, 1307 kPa, Liquid	0.05937
383.13 K, 1311 kPa, Liquid	0.05937
383.13 K, 35551 kPa, Liquid	0.08007
383.13 K, 35559 kPa, Liquid	0.08009
383.17 K, 33010 kPa, Liquid	0.07893
383.17 K, 33031 kPa, Liquid	0.07897
383.19 K, 6275 kPa, Liquid	0.06357
383.2 K, 884 kPa, Fluid (supercritical or subcritical phases)	0.018
383.2 K, 6276 kPa, Liquid	0.06372
383.2 K, 16814 kPa, Liquid	0.07066
383.2 K, 16828 kPa, Liquid	0.07087
383.21 K, 885 kPa, Fluid (supercritical or subcritical phases)	0.01804
383.21 K, 1198 kPa, Fluid (supercritical or subcritical phases)	0.01888
383.23 K, 1197 kPa, Fluid (supercritical or subcritical phases)	0.01891
383.23 K, 28320 kPa, Liquid	0.07674
383.24 K, 28314 kPa, Liquid	0.07674
383.25 K, 13728 kPa, Liquid	0.06881
383.26 K, 13716 kPa, Liquid	0.0688
383.3 K, 4299 kPa, Liquid	0.0621
383.3 K, 4304 kPa, Liquid	0.06207
383.31 K, 24121 kPa, Liquid	0.07463
383.31 K, 24128 kPa, Liquid	0.07464
383.34 K, 10966 kPa, Liquid	0.06703
383.35 K, 10969 kPa, Liquid	0.06723
383.36 K, 2610 kPa, Liquid	0.06058
383.36 K, 2618 kPa, Liquid	0.06063
383.4 K, 20075 kPa, Liquid	0.07247
383.4 K, 35533 kPa, Liquid	0.07987
383.4 K, 35549 kPa, Liquid	0.08004
383.41 K, 7887 kPa, Liquid	0.06484
383.41 K, 8373 kPa, Liquid	0.06523
383.41 K, 20088 kPa, Liquid	0.07251
383.42 K, 999 kPa, Fluid (supercritical or subcritical phases)	0.01831
383.42 K, 7894 kPa, Liquid	0.06491
383.42 K, 8391 kPa, Liquid	0.06529
383.43 K, 1000 kPa, Fluid (supercritical or subcritical phases)	0.01834
383.44 K, 1304 kPa, Liquid	0.05936
383.44 K, 1312 kPa, Liquid	0.05942
383.44 K, 33007 kPa, Liquid	0.07889
383.45 K, 33003 kPa, Liquid	0.0789
383.49 K, 16818 kPa, Liquid	0.07063
383.49 K, 16831 kPa, Liquid	0.07066
383.5 K, 6277 kPa, Liquid	0.06367
383.51 K, 6277 kPa, Liquid	0.06368
383.51 K, 28297 kPa, Liquid	0.07667
383.52 K, 28321 kPa, Liquid	0.07671
383.54 K, 1198 kPa, Fluid (supercritical or subcritical phases)	0.01908
383.55 K, 1198 kPa, Fluid (supercritical or subcritical phases)	0.01907
383.55 K, 13721 kPa, Liquid	0.06876
383.56 K, 13735 kPa, Liquid	0.06881
383.6 K, 24101 kPa, Liquid	0.07457
383.6 K, 24124 kPa, Liquid	0.0746
383.61 K, 4288 kPa, Liquid	0.06216
383.62 K, 4293 kPa, Liquid	0.06209
383.65 K, 10955 kPa, Liquid	0.067
383.65 K, 10973 kPa, Liquid	0.06702
383.68 K, 2612 kPa, Liquid	0.0606
383.68 K, 2620 kPa, Liquid	0.06068
383.73 K, 8375 kPa, Liquid	0.06521
383.73 K, 8381 kPa, Liquid	0.06538
383.78 K, 999 kPa, Fluid (supercritical or subcritical phases)	0.01848
401.38 K, 1794 kPa, Fluid (supercritical or subcritical phases)	0.02085
401.39 K, 1794 kPa, Fluid (supercritical or subcritical phases)	0.02077
401.48 K, 1714 kPa, Fluid (supercritical or subcritical phases)	0.0205
401.48 K, 1716 kPa, Fluid (supercritical or subcritical phases)	0.02045
401.53 K, 1623 kPa, Fluid (supercritical or subcritical phases)	0.02023
